In US8513295B2, “Viral and fungal inhibitors” (Georgetown University, priority 2008, dated 2013):

These molecules were tested against T1, WNV protease (UniProt Q9Q6P4) (assay: in vitro WNV protease assay (Example 2)). Conditions: Protease Inhibition Activity, Table 1; read-out: IC50 (μM) WNVpro.
T1 construct: "expression and purification of WNV (EG101 strain) were similar to those described elsewhere by Mueller et al."
T1 sequence (Q9Q6P4 1506-2124): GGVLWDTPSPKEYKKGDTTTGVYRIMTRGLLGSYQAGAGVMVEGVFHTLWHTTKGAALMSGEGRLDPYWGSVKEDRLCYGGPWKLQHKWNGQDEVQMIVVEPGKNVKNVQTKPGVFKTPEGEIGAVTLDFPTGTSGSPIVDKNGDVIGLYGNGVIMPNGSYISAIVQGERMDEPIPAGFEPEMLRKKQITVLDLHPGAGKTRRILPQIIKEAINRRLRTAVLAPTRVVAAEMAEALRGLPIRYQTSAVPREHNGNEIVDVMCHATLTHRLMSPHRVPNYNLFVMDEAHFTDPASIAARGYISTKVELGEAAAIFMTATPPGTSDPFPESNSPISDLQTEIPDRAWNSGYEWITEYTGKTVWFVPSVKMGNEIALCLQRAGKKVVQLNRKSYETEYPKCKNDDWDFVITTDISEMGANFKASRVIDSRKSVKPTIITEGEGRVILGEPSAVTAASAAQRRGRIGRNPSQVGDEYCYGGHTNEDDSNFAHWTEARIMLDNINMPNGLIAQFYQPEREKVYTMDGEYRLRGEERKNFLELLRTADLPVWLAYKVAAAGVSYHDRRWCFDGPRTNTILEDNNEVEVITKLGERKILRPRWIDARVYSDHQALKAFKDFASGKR
Assay type: biochemical, West Nile Virus (EG101 strain)
Procedure: Procedures for expression and purification of WNV (EG101 strain) were similar to those described elsewhere by Mueller et al., Int. J. Biochem. Cell. Biol., 39: 606-14 (2007). Briefly, E. coli Top10 F′ cells (Invitrogen, Carlsbad, Calif.) were transformed with the protease expression plasmid. Cells were grown at 37° C. until the OD600 was ˜0.5. Cells were then induced with isopropyl-1-thio-β-D-galactopyranoside (American Bioanalytical, Natick, Mass.) (0.5 mM), and incubated for 4 h at 37° C. Cells were harvested by centrifugation (5000×g) for 15 min at 4° C., washed once with a buffer containing 50 mM Tris-HCl, pH 7.5, and 200 mM NaCl, centrifuged at 5000×g for 15 min at 4° C., and stored at −80° C. until used.
Proteases were purified by suspending bacterial pellets in 50 mM Hepes, pH 7.0, 500 mM NaCl, (buffer A) with 0.05 mg/ml lysozyme. Cells were incubated for 30 min on ice after addition of 10% stock solution of Triton X-100 (final concentration of 0.5%). Cells were disrupted by sonication for 2 min and the soluble fraction was collected after centrifugation (15,000×g) for 30 min at 4° C. The soluble fraction was incubated for 1 h at 4° C. with Talon resin (BD Bioscience, San Jose, Calif.) which was pre-equilibrated in buffer A. The affinity resin was centrifuged at (400×g) for 10 min at 4° C., washed three times with buffer A, and packed into a column. Washing of the column was continued with the buffer A containing 10 mM imidazole, followed by elution of the protease with buffer A containing 150 mM imidazole. The protease was concentrated and further purified by Sephadex G-75 gel filtration chromatography. The purified protease fractions were pooled and dialyzed against a buffer containing 50 mM Tris-HCl pH 7.5 and 300 mM NaCl (4×1L). Aliquots (100 μl) were frozen at −80° C.
(§1) Compounds I-1 to I-14 and II-1 to II-4 (which were synthesized using methods of organic synthesis as discussed above) were analyzed by in vitro protease assays performed in opaque 96-well plates. The enzyme kinetics was done under steady-state conditions. The standard reaction mixtures (50 μL) containing 200 mM Tris-HCl, pH 9.5, 6 mM NaCl, 30% glycerol, 67 nM of WNV protease and 50 μM inhibitor in each assay were incubated for 15 min at room temperature. Reactions were started by the addition of the substrate Boc-Gly-Lys-Arg-AMC at 100 μM final concentration and incubated at room temperature for 15 min. The absorbance of each well containing para-nitroaniline was measured at 405 nm using a spectrophotometer (Molecular Devices, Sunnyvale, Calif.); the fluorescence of AMC released from the WNV substrate was measured using a Tecan Geneios (Durham, N.C.) spectrofluorometer at excitation and emission wavelengths of 390 nm and 420 nm, respectively. Similarly, the WNV protease activity was also determined using the fluorogenic tetrapeptide substrate containing the P4-P1 residues and the fluorogenic group, 4-methoxy-β-naphthylamide (MNA), at P1′ position (Z-Val-Lys-Lys-Arg-MNA) (SEQ ID NO:1). Fluorescence was measured using a spectrofluorometer (Molecular Devices) at excitation and emission wavelengths of 290 and 420 nm, respectively. Fluorescence values obtained with no inhibitor control were taken as 100% and those in the presence of inhibitors were plotted as the percent inhibition of the control.
(§2) Compounds I-2, I-4, I-6, I-7, I-8, I-9, I-23, I-26, I-27, I-28, I-29, I-30, I-31, I-32, III-1, III-2, VI-1, VI-2, VI-3, and VI-4 were also tested for WNV protease inhibition activity according to the procedure detailed above. Further, Compounds I-28, V-1, VI-2, VI-3, VI-4, and IX-1 were tested for DENV protease inhibition activity. The structures of Compounds I-2, I-4, I-6, I-7, I-8, I-9, I-23, I-26, I-27, I-28, I-29, I-30, I-31, I-32, III-1, III-2, VI-1, VI-2, VI-3, VI-4, and IX-1 are provided above.
O=C(CCCCc1ccccc1)Nc1cccc(Oc2ccccc2)c1 [Compound I-23] was tested, and the IC50 was 38.6 µM.
With O=C(Nc1cccc(Oc2ccccc2)c1)C(Cc1ccccc1)n1sc2ccccc2c1=O (centres unmarked) [Compound I-31] the IC50 was 2.6 µM.
O=C(Nc1ccc(Oc2ccccc2)cc1)C(Cc1ccccc1)N1Cc2ccccc2C1=O (centres unmarked) [Compound I-4] was tested, and the IC50 was 19.7 µM.
O=C(Nc1ccccc1Oc1ccccc1)C(Cc1ccccc1)n1sc2ccccc2c1=O (centres unmarked) [Compound I-30] gave an IC50 of 6 µM.
For O=C(CC(C(=O)Nc1cccc(Oc2ccccc2)c1)N1Cc2ccccc2C1=O)OCc1ccccc1 (centres unmarked) [Compound I-26], the IC50 was 13 µM.
In the case of O=C(CCC(C(=O)Nc1ccc(Oc2ccccc2)cc1)N1Cc2ccccc2C1=O)OCc1ccccc1 (centres unmarked) [Compound I-28], the IC50 is reported as 15.5 µM.
In the case of O=C(CNC(=O)Nc1cccc(Oc2ccccc2)c1)Nc1ccccc1 [Compound I-8], the IC50 is reported as 22.9 µM.
For O=C(CNC(=O)Nc1ccc(Oc2ccccc2)cc1)Nc1ccccc1 [Compound I-9], the IC50 was 31.2 µM.
For O=c1c2ccccc2sn1C(Cc1ccccc1)c1nnc(-c2cccc(Cl)c2)o1 (centres unmarked) [VI-3], the IC50 was 7.6 µM.
O=C(Nc1cccc(Oc2ccccc2)c1)C(Cc1ccccc1)N1Cc2ccccc2C1=O (centres unmarked) [Compound I-2] was tested, and the IC50 was 11.1 µM.
O=c1c2ccccc2sn1C(Cc1ccccc1)c1nnc(Cc2ccccc2)o1 (centres unmarked) [VI-2] was tested, and the IC50 was 2.1 µM.
Molecule O=C(Nc1ccc(Oc2ccccc2)cc1)C(Cc1ccccc1)n1sc2ccccc2c1=O (centres unmarked) [Compound I-32] has an IC50 of 6.6 µM.
For O=C(CNC(=O)Nc1cccc(Oc2ccccc2)c1)NCc1ccccc1 [Compound I-6], the IC50 was 22.1 µM.
COc1ccc(Cc2nnc(C(Cc3ccccc3)n3sc4ccccc4c3=O)o2)cc1 (centres unmarked) [VI-1] gave an IC50 of 26 µM.
Work on O=C(CCC(C(=O)Nc1cccc(Oc2ccccc2)c1)N1Cc2ccccc2C1=O)OCc1ccccc1 (centres unmarked) [Compound I-27] yielded an IC50 of 22.7 µM.
O=C(CSc1nc2ccccc2s1)Nc1nc2ccccc2s1 [III-2] gave an IC50 of 34.1 µM.
O=c1c2ccccc2sn1C(Cc1ccccc1)c1nnc(-c2cccc(F)c2)o1 (centres unmarked) [VI-4] showed an IC50 of 9.8 µM.
For O=C(Nc1ccc(Oc2ccccc2)cc1)C(C(=O)OCc1ccccc1)n1sc2ccccc2c1=O (centres unmarked) [Compound I-29], the IC50 was 9 µM.
Molecule O=C(CSc1nc(-c2ccccc2)no1)Nc1nc2ccccc2[nH]1 [III-1] has an IC50 of 14.7 µM.
In the case of O=C(CNC(=O)Nc1ccc(Oc2ccccc2)cc1)NCc1ccccc1 [Compound I-7], the IC50 is reported as 26.1 µM.

These molecules were tested against DENV protease (Dengue virus type 2, UniProt P14340) (assay: DENV protease inhibition activity). Conditions: not given.
Chain of DENV protease (P14340 1394-1440): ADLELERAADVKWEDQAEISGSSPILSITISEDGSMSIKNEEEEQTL
Chain of DENV protease (P14340 1476-1653): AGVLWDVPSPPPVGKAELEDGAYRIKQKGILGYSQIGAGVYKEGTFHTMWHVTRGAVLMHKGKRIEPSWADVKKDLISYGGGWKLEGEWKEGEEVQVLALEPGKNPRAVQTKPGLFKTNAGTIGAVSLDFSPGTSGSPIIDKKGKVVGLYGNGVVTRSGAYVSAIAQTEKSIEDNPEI
Assay type: biochemical
Procedure: as §1, §2
Work on O=C(CCC(C(=O)Nc1ccc(Oc2ccccc2)cc1)N1Cc2ccccc2C1=O)OCc1ccccc1 (centres unmarked) [Compound I-28] yielded an IC50 of 45 µM.
In the case of O=c1c2ccccc2sn1C(Cc1ccccc1)c1nnc(-c2cccc(Cl)c2)o1 (centres unmarked) [VI-3], the IC50 is reported as 10.6 µM.
Molecule O=C(CSc1nc2ccccc2c(=O)[nH]1)Nc1cccc(Oc2ccccc2)c1 [IX-1] has an IC50 of 89 µM.
For O=c1c2ccccc2sn1C(Cc1ccccc1)c1nnc(Cc2ccccc2)o1 (centres unmarked) [VI-2], the IC50 was 9.6 µM.
For O=C1c2ccccc2CN1C(Cc1ccccc1)c1nnc(-c2cccc(Cl)c2)o1 (centres unmarked) [Compound V-1], the IC50 was 12.2 µM.
In the case of O=c1c2ccccc2sn1C(Cc1ccccc1)c1nnc(-c2cccc(F)c2)o1 (centres unmarked) [VI-4], the IC50 is reported as 11.4 µM.
